The subject of experiment [1] is CR-Ab pneumonia model mice. As to the kind of experiment: Protective effect in CR-Ab pneumonia model mice (7-day survival). It counts as in vivo, Male C57BL/6 mice. The note with it: intraperitoneal, once a day, after 7 days.
Experiment [2] has as its system clinically isolated Acinetobacter baumannii. The note with it: found in 2017; cited from earlier work.
For experiment [3], the system named is carbapenem antibiotic-resistant Acinetobacter baumannii CR-Ab (157 clinically isolated strains). As to the kind of experiment: microbe, parasite or virus in culture. The note with it: read-out: Cumulative microbial inhibition rates (%) against CR-Ab. From the text:
Strains: 157 clinically isolated strains of carbapenem antibiotic-resistant Acinetobacter baumannii were selected and named as CR-Ab.
Drugs: Sulbactam and ceftazidime were taken and prepared into compositions of different ratios. The method was fixing the amount of sulbactam and gradually reducing the amount of ceftazidime to obtain compositions of sulbactam and ceftazidime at weight ratios of 1:1, 1:0.9, 1:0.8, 1:0.6, 1:0.4, 1:0.2 and 1:0.1, respectively. A sulbactam-only preparation was additionally used as a control.
The cumulative microbial inhibition rate was used to evaluate the microbial inhibition effects of the drugs, respectively. The cumulative microbial inhibition rate was defined as the microbial inhibition rate of a drug at a certain concentration plus all the microbial inhibition rates below that concentration.

For the molecule `C[C@@H](O)[C@H]1C(=O)N2C(C(=O)O)=C(S[C@@H]3CN[C@H](C(=O)N(C)C)C3)[C@H](C)[C@H]12` [Meropenem, meropenem], the “Survival of CR-Ab pneumonia model mice” value in experiment [1] (High dose (30 mg/kg)) is 3/15; in experiment [1] (Low dose (10 mg/kg)), 2/15. Further, in experiment [2], the resistance rate result is recorded as “up to 69.3%”.

Turning to `CC1(C)[C@H](C(=O)O)N2C(=O)C[C@H]2S1(=O)=O` [Single sulbactam, (2S,5R)-3,3-dimethyl-7-oxo-4-thia-1-azabicyclo[3.2.0]heptane-2-carboxylate-4,4-dioxide], in experiment [3], the inhibition at 0.125 µg/mL is 0%, the inhibition at 0.25 µg/mL came out at 0%, the inhibition at 0.5 µg/mL was 0% and the inhibition at 1 µg/mL came out at 7%. Also, in experiment [3], the inhibition at 2 µg/mL was found to be 17%, the inhibition at 4 µg/mL stood at 32%, the inhibition at 8 µg/mL was found to be 48% and the inhibition at 16 µg/mL is 64%. For the same molecule, in experiment [3], the inhibition at 32 µg/mL was 84%, the inhibition at 64 µg/mL was 94%, the inhibition at 128 µg/mL is 100% and the inhibition at 256 µg/mL came to 100%. Also, in experiment [3], the inhibition at 512 µg/mL was 100%.

Turning to `CC(C)(O/N=C(\C(=O)N[C@@H]1C(=O)N2C(C(=O)[O-])=C(C[n+]3ccccc3)CS[C@H]12)c1csc(N)n1)C(=O)O` [ceftazidime, (6R,7R)-7-[[(2Z)-2-(2-Aminothiazol-4-yl)-2-[(1-carboxy-1-methylethoxy)imino]acetyl]amino]-8-oxo-3-[(1-pyridinio)methyl]-5-thia-1-azabicyclo[4.2.0]oct-2-ene-2-carboxylate], the resistance rate entry in experiment [2] is “up to 72%”.

The values above are taken from US12194049B2, “Composition for treating carbapenem antibiotic-resistant Acinetobacter baumannii infection” (priority 2019, dated 2025).
